Residues, ends and D or L forms follow the SMILES beside them. *: point of attachment. Cbz = O=C(OCc1ccccc1)*
What was measured:
[1] = system: mouse tracheal epithelial (MTE) cells; assay: Extracellular glutamate in cell culture supernatant of MTE cells; assay type: cell-based
Excerpt: (§1) A regulator of GSH homeostasis is the transporter system xC-, which exports glutamate and concomitantly imports cystine in a 1:1 ratio. Once inside the cells, cystine is reduced to two cysteines, the latter being the rate limiting amino acid required for GSH synthesis. These relationships were examined further. […] To address whether IL1B-induced increases in GSH are system xC- dependent, two system xC- inhibitors, erastin (Er) and sulfasalazine (SAS) were used. Cells were pretreated for one hour, followed by IL1B treatment for 24 hours. Then, GSH levels were measured in cells exposed to increasing doses of Er or SAS (FIG. 2G). Extracellular glutamate levels in cell culture supernatant of cells pretreated with 0.5 micromolar Er (left) or 100 micromolar SAS (right) for 1 hour before IL1B stimulation were also measured (FIG. 2H). […] System xC- inhibition is known to induce ferroptosis, an iron-dependent mode of cell death characterized by increased lipid peroxidation. However, no changes in cell viability using erastin (5 micromolar) or sulfasalazine (500 micromolar) were detected (FIG. 2I; P-value*<0.05, ***<0.001, ****<0.0001).
(§2) Primary mouse tracheal epithelial (MTE) cells were isolated from C57BL/6NJ wild-type or C57BL6/NJ mice lacking Glrx1 gene and cultured. Cells were grown on collagen coated plastic plates or transwell inserts with media change every 2 days until confluency. For interleukin 1B (IL1B) treatment: cells were incubated in plain Dulbecco's Modified Eagle Medium (DMEM): F12 media containing 6 mM glucose and 2 mM glutamine overnight followed by stimulation with 10 ng/ml IL1B or 0.1% bovine serum albumin (BSA) in phosphate buffered saline (PBS) (vehicle control) for 24 hours. Treatment with crastin, sulfasalazine or BSO occurred 1 hour before IL1B stimulation. Media and cells were collected for further analysis. For growing H522 and OTUB1-CRISPR-H522 cells: Roswell Park Memorial Institute (RPMI) media supplemented with 10% fetal bovine serum (FBS) and 1% pen/strep was used to grow the cells. Plasmid over-expression and OTUB1 knock-down experiments were done when cells were 60-70% confluent.
Glutamate in media was measured using Biovision kit following manufacturer's protocol.

[2] = system: mouse tracheal epithelial (MTE) cells; assay: Total GSH measurement (DTNB assay) in MTE cells; assay type: cell-based
Experimental: It has been previously shown that the pleotropic cytokine IL1B augments glycolysis in lung epithelial cells, and that interleukin 1B (IL1B) is linked to oxidative stress. The pentose phosphate pathway, an offshoot of glycolysis, regulates the redox environment by providing nicotinamide adenine dinucleotide phosphate (NADPH) reducing equivalents necessary for glutathione (GSH) homeostasis. The effects of GSH in response to IL1B were examined. Briefly, GSH was measured using a 5,5′-dithio-bis (2-nitrobenzoic acid) (DTNB) assay in both control and IL1B-stimulated mouse tracheal epithelial cells. […] Statistics on the left panel represent the total GSH levels, without differentiating between labeled and unlabeled portions of GSH (P-value*<0.05, ****<0.0001).
as §1, §2
Cell lysates were prepared in 100 mM potassium phosphate buffer containing 0.6% sulfosalicylic acid, 1 mM ethylenediaminetetraacetic acid (EDTA) and 0.01% triton-x-100. To measure total glutathione (GSH), equal amounts of proteins were incubated with 3 micromolar 5,5′-dithio-bis (2-nitrobenzoic acid) (DTNB) reagent and 2.25 microgram/ml glutathione reductase followed by the addition of 240 micromolar Nicotinamide adenine dinucleotide phosphate (NADPH). Kinetic absorbance was measured every minute at 412 nm for 20 minutes. […]

SLC7A11 = SLC7A11 non-reducing Western blot in MTE cells; assay type: cell-based, mouse; details: MG132 5 micrograms/ml, 24 hours
Experimental: OTUB1 was previously shown to interfere with ubiquitination and subsequent proteasomal degradation of SLC7A11. A SLC7A11 non-reducing Western blot using MTE cells pretreated with 5 micrograms/ml MG132 or 10 ng/ml IL1B for 24 hours with ACTB used as a loading control was performed (FIG. 7A). In addition, an assessment of GSH levels in MG132-(5 micrograms/ml, 24 hours) (FIG. 7B, left) or bortezomib-(FIG. 7B, right) (0.3 micromolar, 24 hours) treated MTE cells was undertaken (P-value***<0.001, ****<0.0001). Extracellular glutamate levels in MG132-treated MTE cells were also assessed (5 micrograms/ml, 24 hours) (FIG. 7C) (P-value***<0.001, ****<0.0001). The proteasome inhibitors MG132 or bortezomib increased SCL7A11, GSH and extracellular glutamate levels in tracheal epithelial cells (FIGS. 7A-7C), identifying the importance of proteasomal degradation of SLC7A11 in regulating system xC- and glutathione levels.
Bio-Rad DC protein estimation kit was used to determine protein concentration in cell lysates. Equal amounts of proteins were resolved using sodium dodecyl sulfate (SDS)-polyacrylamide gel electrophoresis and transferred to polyvinylidene difluoride (PVDF) membranes, blocked in 5% BSA and incubated with primary antibodies overnight. Membranes were subsequently incubated with peroxidase-conjugated secondary antibodies for one hour and then visualized using chemiluminescence.

[3] = system: mouse tracheal epithelial (MTE) cells; assay: Calcein AM cell viability in MTE cells; assay type: cell-based; details: sulfasalazine 500 micromolar
Excerpt: Invitrogen Live/Dead viability/cytotoxicity kit was used to measure cell viability according to manufacturer's instruction. Data was expressed as percentage survival compared to control untreated cells.

OTUB1 = assay: OTUB1-SSG: GSH immunoprecipitation followed by OTUB1 Western blot; assay type: cell-based, mouse; details: cells treated with recombinant protein
Experimental: (§3) OTUB1 was one of the PSSG targets detected in IL1B-stimulated epithelial cells raising the possibility that S-glutathionylation of OTUB1 affects the stability of SLC7A11. To investigate this, immunoprecipitation of GSH followed by Western Blotting of OTUB1 in MTE cells treated with vehicle or IL1B was performed. Dithiothreitol (DTT) was incubated with cell lysates prior to immunoprecipitation as a negative control. OTUB1 levels from whole cell lysates were used as the input control. Increases in OTUB1 S-glutathionylation (OTUB1-SSG) in response to IL1B were observed, with further increases occurring in cells lacking Glrx (FIG. 4G), consistent with the role of GLRX as a deglutathionylating enzyme. Western blots were performed using cells treated with the WT- or C23S-mutant GLRX recombinant protein to examine the presence of glutaredoxin (FIG. 4H) and total PSSG (FIG. 4I) (P-value*<0.05, **<0.01, ***<0.001, ****<0.0001). GAPDH was used as a loading control. Glutathione was evaluated in MTE cells treated with recombinant WT- or C23S-mutant GLRX (FIG. 4J) and glutamate in cell culture supernatant of MTE cells treated with WT or the C23S mutant GLRX was also evaluated (FIG. 4K). […]

[4] = system: mouse tracheal epithelial (MTE) cells; assay: Total PSSG in MTE cells treated with recombinant GLRX; assay type: cell-based; details: direct administration of recombinant protein to MTE cells
Experimental: as §3, with “GAPDH was used as a loading control.” left out
Cell lysates were prepared in 100 mM potassium phosphate buffer containing 0.6% sulfosalicylic acid, 1 mM ethylenediaminetetraacetic acid (EDTA) and 0.01% triton-x-100. […] Kinetic absorbance was measured every minute at 412 nm for 20 minutes. […]

[5] = MG132 5 micrograms/ml, 24 hours, MTE cells
[6] = direct administration of recombinant protein to MTE cells

**Q.** Which extracellular glutamate levels [1, 5] does the source give for CC(C)C[C@@H](C=O)NC(=O)[C@H](CC(C)C)NC(=O)[C@H](CC(C)C)NC(=O)OCc1ccccc1 [MG132] (Cbz-Leu-Leu-Leu-aldehyde) here?
**A.** increased

**Q.** What about the GSH levels [2, 5] of the same molecule?
**A.** increased

**Q.** What about the SLC7A11 levels (SLC7A11) of the same molecule?
**A.** increased

**Q.** How did the GSH levels ([2]; bortezomib 0.3 micromolar, 24 hours, MTE cells) turn out when CC(C)C[C@H](NC(=O)[C@H](Cc1ccccc1)NC(=O)c1cnccn1)B(O)O [bortezomib] was run?
**A.** increased

**Q.** Which “IL1B-induced extracellular glutamate levels” value ([1]; MTE cells pretreated with 100 micromolar SAS for 1 hour before IL1B stimulation) does the source give for O=C(O)c1cc(/N=N/c2ccc(S(=O)(=O)Nc3ccccn3)cc2)ccc1O [sulfasalazine] here?
**A.** significantly decreased

**Q.** What about the “IL1B-induced increases in GSH” value ([2]; MTE cells pretreated 1 hour with increasing doses of Er or SAS, then IL1B 24 hours) of the same molecule?
**A.** significantly decreased

**Q.** And the cell viability [3]?
**A.** no changes

B1: C23S GLRX: catalytically inactive C23S mutant GLRX recombinant protein (protein, UniProt P35754 2-106, looked up, variant C23S)
Glutaredoxin-1: AQEFVNCKIQPGKVVVFIKPTSPYCRRAQEILSQLPIKQGLLEFVDITATNHTNEIQDYLQQLTGARTVPRVFIGKDCIGGCSDLVSLQQSGELLTRLKQIGALQ
**Q.** How did the extracellular glutamate [1, 6] turn out when B1 was run?
**A.** did not elicit these effects

**Q.** What about the “OTUB1-SSG (OTUB1 S-glutathionylation)” value (OTUB1) of the same molecule?
**A.** not

**Q.** What about the “overall PSSG” value [4] of the same molecule?
**A.** did not elicit these effects

**Q.** What about the GSH levels [2, 6] of the same molecule?
**A.** did not elicit these effects

From patent US20260027190A1, “OVARIAN TUMOR DEUBIQUITINASE OXIDATION AND USES THEREOF” (The University of Vermont and State Agricultural College, priority 2022, published 2026)
